{
  "source": "patent US10173991B2",
  "about": "“Sulfone amide linked benzothiazole inhibitors of endothelial lipase” (BRISTOL-MYERS SQUIBB COMPANY, priority 2014, dated 2019)",
  "data": [
    {"molecular_target": "Endothelial lipase (EL) (Homo sapiens (Human), UniProt Q9Y5X9)", "sequence (Q9Y5X9 21-500)": "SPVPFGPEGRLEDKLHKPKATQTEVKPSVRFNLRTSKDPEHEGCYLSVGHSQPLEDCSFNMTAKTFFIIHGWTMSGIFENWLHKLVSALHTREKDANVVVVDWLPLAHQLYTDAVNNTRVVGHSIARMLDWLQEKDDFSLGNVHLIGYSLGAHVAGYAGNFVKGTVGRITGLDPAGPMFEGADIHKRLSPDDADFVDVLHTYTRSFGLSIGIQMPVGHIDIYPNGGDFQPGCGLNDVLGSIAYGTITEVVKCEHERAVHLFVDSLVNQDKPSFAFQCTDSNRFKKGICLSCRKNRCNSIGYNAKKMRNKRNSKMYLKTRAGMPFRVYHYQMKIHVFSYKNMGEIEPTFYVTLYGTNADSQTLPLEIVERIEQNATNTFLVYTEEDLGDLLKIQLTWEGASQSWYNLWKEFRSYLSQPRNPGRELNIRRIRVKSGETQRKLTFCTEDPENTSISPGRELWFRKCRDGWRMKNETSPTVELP", "assay": "Endothelial lipase (EL) enzymatic assay with fluorescent substrate A10070 in DMPG vesicles", "format": "biochemical", "procedure,_shortened": "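EL from conditioned medium of HT-1080 cells engineered to overexpress endogenous EL; HL partially purified from conditioned medium of HL-overexpressing COS cells. Enzyme preincubated with compound 30 min at 37° C in 50 mM HEPES pH 8.0, 50 mM NaCl, 1 mM CaCl2; DMPG vesicles carrying FRET substrate (0.11 mole fraction) then added.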", "units": {"IC50": "nM"}, "values": [
      {"compound": "COCCS(=O)(=O)C(C(=O)NCC(=O)NC1CC1)c1nc2cc(-c3cccnc3C)ccc2s1", "note": "(centres unmarked) [Example 91, N-[(cyclopropyl-carbamoyl)methyl]-2-(2-methoxyethane-sulfonyl)-2-[5-(2-methylpyridin-3-yl)-1,3-benzothiazol-2-yl]acetamide]", "IC50": 18},
      {"compound": "COCCS(=O)(=O)C(C(=O)NCC(=O)NC1CC1)c1nc2cc(-c3c(C)ccnc3F)ccc2s1", "note": "(centres unmarked) [Example 92, N-[(cyclopropyl-carbamoyl)methyl]-2-[5-(2-fluoro-4-methylpyridin-3-yl)-1,3-benzothiazol-2-yl]-2-(2-methoxyethane-sulfonyl) acetamide]", "IC50": 77},
      {"compound": "COCCS(=O)(=O)C(C(=O)NCC(=O)NC1CC1)c1nc2ccc(-c3ccc(-c4ncco4)cc3)cc2s1", "note": "(centres unmarked) [Example 93, N-[(cyclopropyl-carbamoyl)methyl]-2-(2-methoxyethane-sulfonyl)-2-{6[4-(1,3-oxazol-2-yl)phenyl]-1,3-benzothiazol-2-yl} acetamide]", "IC50": 1},
      {"compound": "COCCS(=O)(=O)C(C(=O)NCC(=O)NC1CC1)c1nc2cc(Cl)c(-c3ccc(NC(=O)OC)cc3)cc2s1", "note": "(centres unmarked) [Example 94, methyl N-{4-[5-chloro-2-({[(cyclopropyl-carbamoyl)methyl]carbamoyl}(2-methoxyethane-sulfonyl)methyl)-1,3-benzothiazol-6-yl]phenyl} carbamate]", "IC50": 2},
      {"compound": "COC(=O)Nc1ccc(-c2ccc3nc(C(C(=O)NCC(=O)NC4CC4)S(C)(=O)=O)sc3c2)cc1", "note": "(centres unmarked) [Example 95, methyl N-{4-[2-({[(cyclopropyl-carbamoyl)methyl]carbamoyl} (methanesulfonyl)methyl)-1,3-benzothiazol-6-yl]phenyl}carbamate]", "IC50": 2},
      {"compound": "COCCS(=O)(=O)C(C(=O)NCC(=O)NC1CC1)c1nc2cc(Cl)c(-c3ccc(NC(C)=O)cc3)cc2s1", "note": "(centres unmarked) [Example 96, 2-[5-chloro-6-(4-acetamidophenyl)-1,3-benzothiazol-2-yl]-N-[(cyclopropyl-carbamoyl)methyl]-2-(2-methoxyethane-sulfonyl) acetamide]", "IC50": 2},
      {"compound": "COCCS(=O)(=O)C(C(=O)NCC(=O)NC1CC1)c1nc2ccc(-c3ccc(C(=O)NCC(F)(F)F)cc3)cc2s1", "note": "(centres unmarked) [Example 97, 4-[2-({[(cyclopropyl-carbamoyl)methyl]carbamoyl}(2-methoxyethane-sulfonyl)methyl)-1,3-benzothiazol-6-yl]-N-(2,2,2-trifluoroethyl) benzamide]", "IC50": 4},
      {"compound": "COCCS(=O)(=O)C(C(=O)NCC(=O)NC1CC1)c1nc2ccc(-c3ccc(NC(C)=O)cc3)cc2s1", "note": "(centres unmarked) [Example 98, N-[(cyclopropyl-carbamoyl)methyl]-2-[6-(4-acetamidophenyl)-1,3-benzothiazol-2-yl]-2-(2-methoxyethane-sulfonyl) acetamide]", "IC50": 8},
      {"compound": "COCCNC(=O)c1ccc(-c2cc3sc(C(C(=O)NCC(=O)NC4CC4)S(=O)(=O)CCOC)nc3cc2Cl)cc1", "note": "(centres unmarked) [Example 99, 4-[5-chloro-2-({[(cyclopropyl-carbamoyl)methyl]carbamoyl}(2-methoxyethane-sulfonyl)methyl)-1,3-benzothiazol-6-yl]-N-(2-methoxyethyl) benzamide]", "IC50": 8},
      {"compound": "COCCS(=O)(=O)C(C(=O)NCC(=O)NC1CC1)c1nc2ccc(-c3ccc(NC(=O)OC)cc3)cc2s1", "note": "(centres unmarked) [Example 100, methyl N-{4-[2-({[(cyclopropyl-carbamoyl)methyl]carbamoyl}(2-methoxyethane-sulfonyl)methyl)-1,3-benzothiazol-6-yl]phenyl} carbamate]", "IC50": 8},
      {"compound": "COCCS(=O)(=O)C(C(=O)NCC(=O)NC1CC1)c1nc2ccc(-c3ccc(-c4nnc(C)o4)cc3)cc2s1", "note": "(centres unmarked) [Example 101, N-[(cyclopropyl-carbamoyl)methyl]-2-(2-methoxyethane-sulfonyl)-2-{6-[4-(5-methyl-1,3,4-oxadiazol-2-yl)phenyl]-1,3-benzothiazol-2-yl} acetamide]", "IC50": 9},
      {"compound": "CC(=O)Nc1ccc(-c2ccc3nc(C(C(=O)NCC(=O)NC4CC4)S(C)(=O)=O)sc3c2)cc1", "note": "(centres unmarked) [Example 102, N-[(cyclopropyl-carbamoyl)methyl]-2-[6-(4-acetamidophenyl)-1,3-benzothiazol-2-yl]-2-methanesulfonyl-acetamide]", "IC50": 14},
      {"compound": "CS(=O)(=O)C(C(=O)NCC(=O)NC1CC1)c1nc2ccc(-c3ccc(C(=O)NCC(F)(F)F)cc3)cc2s1", "note": "(centres unmarked) [Example 103, 4-[2-({[(cyclopropyl-carbamoyl)methyl]carbamoyl} (methanesulfonyl)methyl)-1,3-benzothiazol-6-yl]-N-(2,2,2-trifluoroethyl) benzamide]", "IC50": 20},
      {"compound": "COCCS(=O)(=O)C(C(=O)NCC(=O)NC1CC1)c1nc2cc(-c3ccc(NC(=O)OC)cc3)ccc2s1", "note": "(centres unmarked) [Example 104, methyl N-{4-[2-({[(cyclopropyl-carbamoyl)methyl]carbamoyl}(2-methoxyethane-sulfonyl)methyl)-1,3-benzothiazol-5-yl]phenyl} carbamate]", "IC50": 28},
      {"compound": "COCCS(=O)(=O)C(C(=O)NCC(=O)NC1CC1)c1nc2cc(Cl)c(-c3ccc(F)nc3)cc2s1", "note": "(centres unmarked) [Example 105, 2-[5-chloro-6-(6-fluoropyridin-3-yl)-1,3-benzothiazol-2-yl]-N-[(cyclopropyl-carbamoyl)methyl]-2-(2-methoxyethane-sulfonyl)acetamide]", "IC50": 28},
      {"compound": "COCCS(=O)(=O)C(C(=O)NCC(=O)NC1CC1)c1nc2cc(-c3ccc(NC(C)=O)cc3)ccc2s1", "note": "(centres unmarked) [Example 106, N-[(cyclopropyl-carbamoyl)methyl]-2-[5-(4-acetamidophenyl)-1,3-benzothiazol-2-yl]-2-(2-methoxyethane-sulfonyl)acetamide]", "IC50": 30},
      {"compound": "COCCS(=O)(=O)C(C(=O)NCC(=O)NC1CC1)c1nc2cc(Cl)c(-c3ccnn3C)cc2s1", "note": "(centres unmarked) [Example 107]", "IC50": 34},
      {"compound": "COCCS(=O)(=O)C(C(=O)NCC(=O)NC1CC1)c1nc2cc(Cl)c(-c3ccn(C)c(=O)c3)cc2s1", "note": "(centres unmarked) [Example 108, 2-[5-chloro-6-(1-methyl-2-oxo-1,2-dihydropyridin-4-yl)-1,3-benzothiazol-2-yl]-N-[(cyclopropyl-carbamoyl)methyl]-2-(2-methoxyethane-sulfonyl)acetamide]", "IC50": 51},
      {"compound": "CC(C)(O)Cn1cc(-c2ccc3nc(C(C(=O)NCC(=O)NC4CC4)S(C)(=O)=O)sc3c2)cn1", "note": "(centres unmarked) [Example 109, N-[(cyclopropyl-carbamoyl)methyl]-2-{6-[1-(2-hydroxy-2-methylpropyl)-1H-pyrazol-4-yl]-1,3-benzothiazol-2-yl}-2-methanesulfonyl-acetamide]", "IC50": 14},
      {"compound": "COCCS(=O)(=O)C(C(=O)NCC(=O)NC1CC1)c1nc2ccc(-c3cnn(CC(C)(C)O)c3)cc2s1", "note": "(centres unmarked) [Example 110, N-[(cyclopropyl-carbamoyl)methyl]-2-{6-[1-(2-hydroxy-2-methylpropyl)-1H-pyrazol-4-yl]-1,3-enzothiazol-2-yl}-2-(2-methoxyethane-sulfonyl) acetamide]", "IC50": 31},
      {"compound": "CC(=O)Nc1cccc(-c2ccc3nc(C(C(=O)NCC(=O)NC4CC4)S(C)(=O)=O)sc3c2)c1", "note": "(centres unmarked) [Example 111, N-[(cyclopropyl-carbamoyl)methyl]-2-[6-(3-acetamidophenyl)-1,3-benzothiazol-2-yl]-2-methanesulfonyl-acetamide]", "IC50": 23},
      {"compound": "COCCS(=O)(=O)C(C(=O)NCC(=O)NC1CC1)c1nc2cc(Cl)c(-c3cncnc3)cc2s1", "note": "(centres unmarked) [Example 112, 2-[5-chloro-6-(pyrimidin-5-yl)-1,3-benzothiazol-2-yl]-N-[(cyclopropyl-carbamoyl)methyl]-2-(2-methoxyethane-sulfonyl)acetamide]", "IC50": 97},
      {"compound": "CC(=O)Nc1ccc(-c2cc3nc(C(C(=O)NCC(=O)NC4CC4)S(C)(=O)=O)sc3cc2F)cc1", "note": "(centres unmarked) [Example 113, N-[(cyclopropyl-carbamoyl)methyl]-2-[5-(4-acetamidophenyl)-6-fluoro-1,3-benzothiazol-2-yl]-2-methanesulfonyl-acetamide]", "IC50": 9},
      {"compound": "COC(=O)Nc1ccc(-c2cc3nc(C(C(=O)NCC(=O)NC4CC4)S(C)(=O)=O)sc3cc2F)cc1", "note": "(centres unmarked) [Example 114, methyl N-{4-[2-({[(cyclopropyl-carbamoyl)methyl]caramoyl} (methanesulfonyl)methyl)-6-fluoro-1,3-benzothiazol-5-yl]phenyl} carbamate]", "IC50": 4},
      {"compound": "CC(=O)Nc1cccc(-c2cc3nc(C(C(=O)NCC(=O)NC4CC4)S(C)(=O)=O)sc3cc2F)c1", "note": "(centres unmarked) [Example 115, N-[(cyclopropyl-carbamoyl)methyl]-2-[5-(3-acetamidophenyl)-6-fluoro-1,3-benzothiazol-2-yl]-2-methanesulfonyl-acetamide]", "IC50": 12},
      {"compound": "CC(=O)Nc1cccc(-c2cc3sc(C(C(=O)NCC(=O)NC4CC4)S(C)(=O)=O)nc3cc2F)c1", "note": "(centres unmarked) [Example 116, N-[(cyclopropyl-carbamoyl)methyl]-2-[6-(3-acetamidophenyl)-5-fluoro-1,3-benzothiazol-2-yl]-2-methanesulfonyl-acetamide]", "IC50": 17},
      {"compound": "COC(=O)Nc1cccc(-c2cc3sc(C(C(=O)NCC(=O)NC4CC4)S(C)(=O)=O)nc3cc2F)c1", "note": "(centres unmarked) [Example 117, methyl N-{3-[2-({[(cyclopropyl-carbamoyl)methyl]carbamoyl} (methanesulfonyl)methyl)-5-fluoro-1,3-benzothiazol-6-yl]phenyl} carbamate]", "IC50": 4},
      {"compound": "COC(=O)Nc1ccc(-c2cc3sc(C(C(=O)NCC(=O)NC4CC4)S(C)(=O)=O)nc3cc2F)cc1F", "note": "(centres unmarked) [Example 118, methyl N-{4-[2-({[(cyclopropyl-carbamoyl)methyl]carbamoyl} (methanesulfonyl)methyl)-5-fluoro-1,3-benzothiazol-6-yl]-2-fluorophenyl} carbamate]", "IC50": 11},
      {"compound": "COC(=O)Nc1ccc(-c2cc3sc(C(C(=O)NCC(=O)NC4CC4)S(C)(=O)=O)nc3cc2F)cc1", "note": "(centres unmarked) [Example 120, methyl N-{4-[2-({[(cyclopropyl-carbamoyl)methyl]carbamoyl} (methanesulfonyl)methyl)-5-fluoro-1,3-benzothiazol-6-yl]phenyl} carbamate]", "IC50": 4}
    ]}
  ]
}
